# According to article PMC4361900 (Journal of medicinal chemistry, 2013):
# How the values were obtained:
# [1] = biological target: T1, MAO A (Homo sapiens, UniProt P21397); test: MAO A inhibition, kynuramine fluorescence assay; assay type: biochemical
# T1 sequence (P21397 1-527): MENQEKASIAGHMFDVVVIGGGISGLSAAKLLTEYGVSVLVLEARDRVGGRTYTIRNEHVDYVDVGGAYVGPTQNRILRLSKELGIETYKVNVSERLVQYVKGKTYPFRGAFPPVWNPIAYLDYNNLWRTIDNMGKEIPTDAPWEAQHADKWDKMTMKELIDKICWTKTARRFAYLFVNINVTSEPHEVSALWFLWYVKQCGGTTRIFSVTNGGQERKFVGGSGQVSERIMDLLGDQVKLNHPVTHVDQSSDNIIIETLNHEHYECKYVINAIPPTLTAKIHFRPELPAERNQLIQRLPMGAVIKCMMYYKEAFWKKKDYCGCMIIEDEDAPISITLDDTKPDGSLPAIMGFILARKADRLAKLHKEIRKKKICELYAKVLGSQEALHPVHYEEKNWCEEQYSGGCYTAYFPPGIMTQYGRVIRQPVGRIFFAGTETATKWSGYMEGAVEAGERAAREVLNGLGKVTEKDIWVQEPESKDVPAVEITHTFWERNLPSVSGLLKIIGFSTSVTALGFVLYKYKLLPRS
# [2] = biological target: T2, MAO B (Homo sapiens, UniProt P27338); test: MAO B inhibition, kynuramine fluorescence assay; assay type: biochemical; conditions: for Inhibition of MAO B, % inhibition @ conc.: @ 500 µM
# T2 sequence (P27338 1-520): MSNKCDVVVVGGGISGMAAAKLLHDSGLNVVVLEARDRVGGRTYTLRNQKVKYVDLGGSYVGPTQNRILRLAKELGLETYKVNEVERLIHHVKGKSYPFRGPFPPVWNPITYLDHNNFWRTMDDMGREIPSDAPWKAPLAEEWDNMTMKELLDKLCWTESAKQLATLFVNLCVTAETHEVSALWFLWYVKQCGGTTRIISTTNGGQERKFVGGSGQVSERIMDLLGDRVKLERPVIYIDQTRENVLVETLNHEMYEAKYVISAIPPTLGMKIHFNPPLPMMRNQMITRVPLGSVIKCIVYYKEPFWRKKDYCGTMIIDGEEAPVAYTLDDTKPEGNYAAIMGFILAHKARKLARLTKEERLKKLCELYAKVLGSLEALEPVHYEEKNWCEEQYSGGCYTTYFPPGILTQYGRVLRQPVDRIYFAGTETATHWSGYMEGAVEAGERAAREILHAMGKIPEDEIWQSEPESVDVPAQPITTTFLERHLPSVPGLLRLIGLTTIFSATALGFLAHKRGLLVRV
# [3] = Solubility in cell culture media; assay type: physicochemical
# [4] = test system: H3K4me2 in MCF7 cells; test: Western blot of H3K4 dimethylation in MCF7 cells; assay type: cell-based; conditions: 24 hours incubation
# [5] = biological target: T3, LSD1 (Homo sapiens, UniProt O60341); test: LSD1 in-vitro inhibition, horseradish peroxidase; assay type: biochemical; conditions: for Inhibition of LSD1, % inhibition @ conc.: @ 100 µM
# [6] = biological target: T3, LSD1; conditions: MAO inhibitors; cited from earlier work
Structure (SMILES),"Inhibition of LSD1, % inhibition @ conc. [5]",further results
C#CCNCCCC[C@H](NC(=O)c1ccccc1)C(=O)OC(C)(C)C [1a],–,"Inhibition of MAO A, % inhibition @ conc. ([1]; @ 100 µM): n.i. @ 100 µM; Inhibition of MAO B, % inhibition @ conc. [2]: n.i. ^a @ 500 µM"
C#CCN(C)CCCC[C@H](NC(=O)OCc1ccccc1)C(=O)OCc1ccccc1 [2b],–,"Inhibition of MAO B, % inhibition @ conc. [2]: n.i. @ 500 µM"
C#CCN(C)CCCOc1cccc(NC(=O)c2ccccc2)c1 [4b],–,Solubility in cell culture media [3]: soluble; H3K4 dimethylation level (western blot) [4]: increased levels of H3K4 dimethylation
"C#CCNCC(O)COc1ccc(-c2ccccc2)cc1 (stereo not drawn) [5a, 3-(Prop-2-ynylamino)-2-hydroxy-1-(biphenyl-4-yloxy)propane]",–,Solubility in cell culture media [3]: soluble; H3K4 dimethylation level (western blot) [4]: increased levels of H3K4 dimethylation
C#CCN(C)CC(O)COc1ccc(-c2ccccc2)cc1 (stereo not drawn) [5b],–,"Inhibition of MAO A, % inhibition @ conc. ([1]; @ 10 µM): n.i. @ 10 µM"
C#CCN(C)CC(O)COc1ccc2ccccc2c1 (stereo not drawn) [5d],–,MAO-B inhibition in words [2]: only limited inhibition
C#CCNCC(O)COc1ccc(-c2ccc(Br)cc2)cc1 (stereo not drawn) [5i],n.i. @ 100 µM,–
C#CCNCC(O)COc1ccc(-c2ccc(Cl)cc2Cl)cc1 (stereo not drawn) [5j],n.i. @ 100 µM,–
C#CCNCC(O)COc1ccc(-c2cc(Cl)cc(Cl)c2)cc1 (stereo not drawn) [5k],n.i. @ 100 µM,–
C#CCN(C)CC(O)COc1ccc(C(=O)OC)cc1 (stereo not drawn) [5l],n.i. @ 100 µM,–
C#CCNCC(O)COc1ccc(C(=O)OC)cc1 (stereo not drawn) [5m],n.i. @ 100 µM,–
C#CCN(C)CC(O)COc1ccc(CC(=O)OC)cc1 (stereo not drawn) [5n],n.i. @ 100 µM,–
C#CCNCC(O)COc1ccc(CC(=O)OC)cc1 (stereo not drawn) [5o],n.i. @ 100 µM,–
C#CCN(C)CC(O)COc1ccc(CCC(=O)OC)cc1 (stereo not drawn) [5p],n.i. @ 100 µM,–
C#CCNCC(O)COc1ccc(C(N)=O)cc1 (stereo not drawn) [5q],n.i. @ 100 µM,–
C#CCN(C)CC(O)COc1ccc(C(N)=O)cc1 (stereo not drawn) [5r],n.i. @ 100 µM,–
C#CCNCC(O)CNc1ccc(-c2ccccc2)cc1 (stereo not drawn) [6a],n.i. @ 100 µM,LSD1 inhibition in words [5]: inactive
"C#CCNCC(O)CN(C)c1ccc(-c2ccccc2)cc1 (stereo not drawn) [6b, 1-(N-Methyl-4-phenylanilino)-3-(prop-2-ynylamino)propan-2-ol]",n.i. @ 100 µM,LSD1 inhibition in words [5]: inactive
OC(CNC1CC1)COc1ccc(-c2ccccc2)cc1 (stereo not drawn) [7a],n.i. @ 100 µM,–
OC(CNC1CC1)COc1ccc2ccccc2c1 (stereo not drawn) [7b],n.i. @ 100 µM,–
C#CCN(C)[C@H](C)Cc1ccccc1 [deprenyl],–,Inhibitory activity on LSD1 [6]: millimolar range
C#CCN(C)Cc1ccccc1 [pargyline],–,Inhibitory activity on LSD1 [6]: millimolar range
